Source: US8486965B2, “Pyrrolo[2,3-b]pyridine derivative and use thereof for treatment of cancer” (Takeda Pharmaceutical Company Limited, priority 2009, dated 2013)

Experiments:
[1] = system: Hedgehog signal transduction system (Smo); assay: Gli reporter luciferase assay in NIH-3T3/Gli reporter cells stimulated with mouse Shh-N end fragment; assay type: cell-based; details: NIH3T3; 1 μM compound; NIH-3T3/Gli reporter cells with mouse Shh-N end fragment culture supernatant, 48 hr; luciferase activity, control without compound as 100; read-out: inhibition rate (%) at 1 μM
Outline: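 NIH-3T3 cells stably carrying a luciferase reporter driven by 8× Gli-binding sites and chicken δ-crystalline promoter, plated at 1×10^4 cells/well and cultured overnight at 37° C in 10% FBS D-MEM. Compound added with recombinant mouse Shh-N fragment (aa 1–198, HEK293-expressed) to induce signaling; luciferase read-out.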

mouse medulloblastoma = assay: In vivo anti-tumor test, mouse medulloblastoma allogeneic transplantation model; details: 1 mg/kg, orally once a day for 2 weeks; subcutaneous medulloblastoma in nude mouse; at the end of the test; p < 0.025 (Dunnett's test)
Description: According to the description in Sasaki, K. et al., (2006) Cancer Res. 66: 4215-4222, an anti-tumor effect of a compound was evaluated using a mouse medulloblastoma allogeneic transplantation model. To be precise, Patched 1 gene mutant mouse (lineage name: Ptch1tm1Mps/J) was purchased from The Jackson Laboratory and p53 gene mutant mouse (lineage name: P53N4-M, Nomenclature: B6.129-Trp53tm/BrdN4) was purchased from Taconic, and a mouse of Patched 1(+/−), p53(−/−) phenotype was prepared by mating. […]
An anti-tumor test was performed using a tumor passaged by subcutaneous transplantation. […] The tumor diameter after transplantation was measured and, when the tumor size reached 150-250 mm^3, the anti-tumor test was started using 5 mice per group.
The test compound was prepared to achieve a dose of 1 mg/kg with a 0.5% methylcellulose (Shin-Etsu Chemical Co., Ltd., Cat. No. SM-100) suspension, and orally administered once a day for 2 weeks. The tumor size was calculated based on the longer diameter and shorter diameter of the tumor measured with an electron vernier caliper. After the start of the test, the tumor size was measured every 2 or 3 days and the growth rate of the tumor size was calculated. […]

SMILES	inhibition at 1 µM [1]	T/C (%) (growth rate of the tumor size) (mouse medulloblastoma)
CCc1nc2c(cc1NC(=O)c1ccccc1)c(OC(C)C)c(C(=O)NC1CCN(C(=O)CO)CC1)n2C [Example 46, 6-ethyl-N-[1-(hydroxyacetyl)piperidin-4-yl]-1-methyl-3-(1-methylethoxy)-5-[(phenylcarbonyl)amino]-1H-pyrrolo[2,3-b]pyridine-2-carboxamide]	98%	51%
CCc1cc2sc(C(=O)NC3CCN(C(=O)CO)CC3)c(OCC(F)(F)F)c2cc1NC(=O)c1ccccc1 [Example 149, 6-ethyl-N-[1-(hydroxyacetyl)piperidin-4-yl]-5-[(phenylcarbonyl)amino]-3-(2,2,2-trifluoroethoxy)-1-benzothiophene-2-carboxamide]	85%	
CCc1cc2sc(C(=O)NC3CCN(C(=O)CO)CC3)c(OCC(F)(F)F)c2cc1NC(=O)c1ccsc1 [Example 150, 6-ethyl-N-[1-(hydroxyacetyl)piperidin-4-yl]-5-[(thiophen-3-ylcarbonyl)amino]-3-(2,2,2-trifluoroethoxy)-1-benzothiophene-2-carboxamide]	89%	
CCc1nc2c(cc1NC(=O)c1ccco1)c(OCC(F)(F)F)c(C(=O)NC1CCN(C(=O)CO)CC1)n2C [Example 52, 6-ethyl-5-[(furan-2-ylcarbonyl)amino]-N-[1-(hydroxyacetyl)piperidin-4-yl]-1-methyl-3-(2,2,2-trifluoroethoxy)-1H-pyrrolo[2,3-b]pyridine-2-carboxamide]	94%	
CCc1nc2sc(C(=O)NC3CCN(C(=O)CO)CC3)c(OCC(F)(F)F)c2cc1NC(=O)c1ccc(F)cc1 [Example 58, 6-ethyl-5-{[(4-fluorophenyl)carbonyl]amino}-N-[1-(hydroxyacetyl)piperidin-4-yl]-3-(2,2,2-trifluoroethoxy)thieno[2,3-b]pyridine-2-carboxamide]	97%	
CCc1nc2c(cc1NC(=O)c1ccccn1)c(OCC(F)(F)F)c(C(=O)NC1CCN(C(=O)CO)CC1)n2C [Example 42, 6-ethyl-N-[1-(hydroxyacetyl)piperidin-4-yl]-1-methyl-5-[(pyridin-2-ylcarbonyl)amino]-3-(2,2,2-trifluoroethoxy)-1H-pyrrolo[2,3-b]pyridine-2-carboxamide]	92%	
CCc1cc2c(cc1NC(=O)c1ccc(F)cc1)c(OC(C)C)c(C(=O)NC1CCN(C(=O)CO)CC1)n2C [Example 168, 6-ethyl-5-{[(4-fluorophenyl)carbonyl]amino}-N-[1-(hydroxyacetyl)piperidin-4-yl]-1-methyl-3-(1-methylethoxy)-1H-indole-2-carboxamide]	97%	
CCc1nc2c(cc1NC(=O)c1ccc(Cl)cc1)c(OCC(F)(F)F)c(C(=O)NC1CCN(C(=O)CO)CC1)n2C [Example 32, 5-{[(4-chlorophenyl)carbonyl]amino}-6-ethyl-N-[1-(hydroxyacetyl)piperidin-4-yl]-1-methyl-3-(2,2,2-trifluoroethoxy)-1H-pyrrolo[2,3-b]pyridine-2-carboxamide]	98%	
CCc1cc2c(nc1-c1ccc(F)cc1)c(OC(C)C)c(C(=O)NC1CCN(C(=O)CO)CC1)n2C [Example 132, 6-ethyl-5-(4-fluorophenyl)-N-[1-(hydroxyacetyl)piperidin-4-yl]-1-methyl-3-(1-methylethoxy)-1H-pyrrolo[3,2-b]pyridine-2-carboxamide]	86%	
CCc1nc2c(nc1NC(=O)c1ccccc1)c(OCC(F)(F)F)c(C(=O)NC1CCN(C(=O)CO)CC1)n2C [Example 160, 3-ethyl-N-[1-(hydroxyacetyl)piperidin-4-yl]-5-methyl-2-[(phenylcarbonyl)amino]-7-(2,2,2-trifluoroethoxy)-5H-pyrrolo[2,3-b]pyrazine-6-carboxamide]	99%	
Cc1nc2c(nc1-c1ccccc1)c(OC(C)C)c(C(=O)NC1CCN(C(=O)CO)CC1)n2C [Example 143, N-[1-(hydroxyacetyl)piperidin-4-yl]-3,5-dimethyl-7-(1-methylethoxy)-2-phenyl-5H-pyrrolo[2,3-b]pyrazine-6-carboxamide]	96%	
CCc1nc2c(cc1NC(=O)c1ccccc1)c(OCC(F)(F)F)c(C(=O)N[C@H]1CC[C@H](O)CC1)n2C [Example 37, 6-ethyl-N-(trans-4-hydroxycyclohexyl)-1-methyl-5-[(phenylcarbonyl)amino]-3-(2,2,2-trifluoroethoxy)-1H-pyrrolo[2,3-b]pyridine-2-carboxamide]	87%	
CCc1nc2c(cc1NC(=O)c1ccc(F)cc1)c(OCC(F)(F)F)c(C(=O)NC1CCN(C(=O)CO)CC1)n2C [Example 24, 6-ethyl-5-{[(4-fluorophenyl)carbonyl]amino}-N-[1-(hydroxyacetyl)piperidin-4-yl]-1-methyl-3-(2,2,2-trifluoroethoxy)-1H-pyrrolo[2,3-b]pyridine-2-carboxamide]	90%	
CCc1cc2sc(C(=O)NC3CCN(C(=O)CO)CC3)c(OC(C)C)c2cc1NC(=O)c1ccsc1 [Example 152, 6-ethyl-N-[1-(hydroxyacetyl)piperidin-4-yl]-3-(1-methylethoxy)-5-[(thiophen-3-ylcarbonyl)amino]-1-benzothiophene-2-carboxamide]	97%	
